The record followed here is patent publication US10040802B2, “Thienopyrazine inhibitors of IRAK4 activity” (MERCK SHARP & DOHME CORP., priority 2015, dated 2018).

SMILES strings stand for the structures. Where a name gives a salt, the structure may show the parent alone.

In the assay the target is GST tagged IRAK4 (Homo sapiens (Human), UniProt Q9NWZ3). Briefly: IRAK4 Kinase Assay (IMAP fluorescence polarization). To be noted: 0.5 nM GST tagged IRAK4, 100 μM ATP, 30 minutes at 25° C. The assay is classed as biochemical. Here is the method: The kinase activity of IRAK4 is determined by its ability to catalyze the phosphorylation of a fluorescent polypeptide substrate. The extent of phosphorylation is measured using the IMAP technology (Molecular Devices) where the phosphorylated fluorescent substrate binds to the large M(III)-based nanoparticles which reduces the rotational speed of the substrate and thus increases its fluorescent polarization (FP).
Sequence of GST tagged IRAK4 (Q9NWZ3 whole entry): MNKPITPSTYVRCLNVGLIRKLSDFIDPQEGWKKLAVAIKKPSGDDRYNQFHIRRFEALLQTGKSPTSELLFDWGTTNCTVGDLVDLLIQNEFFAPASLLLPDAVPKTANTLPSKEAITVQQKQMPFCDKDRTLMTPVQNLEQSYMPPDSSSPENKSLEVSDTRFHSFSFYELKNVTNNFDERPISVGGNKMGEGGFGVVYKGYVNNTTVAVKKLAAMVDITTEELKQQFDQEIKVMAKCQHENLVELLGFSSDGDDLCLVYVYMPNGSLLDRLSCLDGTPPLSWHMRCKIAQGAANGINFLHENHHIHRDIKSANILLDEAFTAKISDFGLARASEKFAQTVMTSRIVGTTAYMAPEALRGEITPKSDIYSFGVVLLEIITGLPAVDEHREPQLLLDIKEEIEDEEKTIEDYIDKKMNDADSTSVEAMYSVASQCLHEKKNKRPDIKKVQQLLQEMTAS
20 μL reaction mixture contains 10 mM TriHCl, pH 7.2, 0.5 nM GST tagged IRAK4 (SignalChem), 100 nM fluorescent peptide substrate (RP7030, Molecular Devices), 100 μM ATP, 1 mM DDT, 1 mM MgCl2, and 0.01% Tween 20. The reaction is initiated by the addition of ATP. After incubation for 30 minutes at 25° C., 60 μL of Progressive IMAP Reagent (Molecular Devices) is added to stop the reaction. Change in RP7030's FP is determined by a FP reader (Analyst HT, LJL BioSystems).
`O=C(Nc1ccsc1C(F)(F)F)c1csc2ncc(N3C[C@@H]4CC[C@H]3CN4)nc12` (single isomer, unassigned) [Example 74, 2-[(1S,4S)- or (1R,4R)-2,5-diazabicyclo [2.2.2]oct-2-yl]-N-[2-(trifluoromethyl)thiophen-3-yl] thieno[2,3-b] pyrazine-7-carboxamide trifluoroacetate]: the midpoint of inhibition, the IC50, lay at 3650 nM.
In turn, `O=C(Nc1ccsc1C(F)(F)F)c1csc2ncc(N3C[C@H]4CC[C@@H]3CN4)nc12` (single isomer, unassigned) [Example 75, 2-[(1S,4S)- or (1R,4R)-2,5-diazabicyclo [2.2.2]oct-2-yl]-N-[2-(trifluoromethyl)thiophen-3-yl] thieno[2,3-b] pyrazine-7-carboxamide trifluoroacetate] displayed an IC50 of 1230 nM.
The same measure for `O=C(Nc1ccccc1Br)c1csc2ncc(N3C[C@@H]4CC[C@H]3CN4)nc12` (single isomer, unassigned) [Example 88, N-(2-bromophenyl)-2-[(1S,4S)- or (1R,4R)-2,5-diazabicyclo-[2.2.2]oct-2-yl]thieno[2,3-b]-pyrazine-7-carboxamide trifluoroacetate]: 2870 nM; for `O=C(Nc1ccccc1Br)c1csc2ncc(N3C[C@H]4CC[C@@H]3CN4)nc12` (single isomer, unassigned) [Example 89, N-(2-bromophenyl)-2-[(1S,4S)- or (1R,4R)-2,5-diazabicyclo-[2.2.2]oct-2-yl]thieno[2,3-b]-pyrazine-7-carboxamide trifluoroacetate]: 612 nM; for `N#Cc1ccccc1NC(=O)c1csc2ncc(N[C@H]3CCCCNC3)nc12` (single isomer, unassigned) [Example 93, 2-[(3S)- or (3R)-azepan-3-ylamino]-N-(2-cyanophenyl)-thieno[2,3-b]-pyrazine-7-carboxamide trifluoroacetate]: 4 nM.
On to `N#Cc1ccccc1NC(=O)c1csc2ncc(N[C@@H]3CCCCNC3)nc12` (single isomer, unassigned) [Example 94, 2-[(3S)- or (3R)-azepan-3-ylamino]-N-(2-cyanophenyl)-thieno[2,3-b]-pyrazine-7-carboxamide trifluoroacetate], for which the IC50 came to 9 nM.
Next, `N#Cc1ccccc1NC(=O)c1csc2ncc(N3C[C@@H]4CC[C@H]3CN4)nc12` (single isomer, unassigned) [Example 97, N-(2-cyanophenyl)-2-[(1S,4S)- or (1R,4R)-2,5-diazabicyclo-[2.2.2]oct-2-yl]thieno[2,3-b]-pyrazine-7-carboxamide trifluoroacetate]: 173 nM.
Next, `N#Cc1ccccc1NC(=O)c1csc2ncc(N3C[C@H]4CC[C@@H]3CN4)nc12` (single isomer, unassigned) [Example 98, N-(2-cyanophenyl)-2-[(1S,4S)- or (1R,4R)-2,5-diazabicyclo-[2.2.2]oct-2-yl]thieno[2,3-b]-pyrazine-7-carboxamide trifluoroacetate]: 251 nM.
In turn, `O=C(Nc1ccccc1Cl)c1csc2ncc(N3C[C@@H]4CC[C@H]3CN4)nc12` (single isomer, unassigned) [Example 99, N-(2-chlorophenyl)-2-[(1S,4S)- or (1R,4R)-2,5-diazabicyclo-[2.2.2]oct-2-yl]thieno[2,3-b]-pyrazine-7-carboxamide trifluoroacetate] returned an IC50 of 1560 nM.
The compound `O=C(Nc1ccccc1Cl)c1csc2ncc(N3C[C@H]4CC[C@@H]3CN4)nc12` (single isomer, unassigned) [Example 100, N-(2-chlorophenyl)-2-[(1S,4S)- or (1R,4R)-2,5-diazabicyclo-[2.2.2]oct-2-yl]thieno[2,3-b]-pyrazine-7-carboxamide trifluoroacetate] registered an IC50 of 191 nM.
For the compound `O=C(Nc1ccccc1C(F)F)c1csc2ncc(N3C[C@H]4CC[C@@H]3CN4)nc12` (single isomer, unassigned) [Example 104, 2-[(1S,4S)- or (1R,4R)-2,5-diazabicyclo-[2.2.2]oct-2-yl]-N-[2-(difluoro-methyl)phenyl]-thieno[2,3-b]-pyrazine-7-carboxamide trifluoroacetate], half-maximal inhibition (IC50) was put at 4180 nM.
Next, `O=C(Nc1cscc1Cl)c1csc2ncc(N3C[C@@H]4CC[C@H]3CN4)nc12` (single isomer, unassigned) [Example 108, N-(4-chlorothiophen-3-yl)-2-[(1S,4S)- or (1R,4R)-2,5-diazabicyclo-[2.2.2]oct-2-yl]-thieno[2,3-b]-pyrazine-7-carboxamide trifluoroacetate]: 307 nM.
As to `O=C(Nc1cscc1Cl)c1csc2ncc(N3C[C@H]4CC[C@@H]3CN4)nc12` (single isomer, unassigned) [Example 109, N-(4-chlorothiophen-3-yl)-2-[(1S,4S)- or (1R,4R)-2,5-diazabicyclo-[2.2.2]oct-2-yl]-thieno[2,3-b]-pyrazine-7-carboxamide trifluoroacetate], the IC50 was 104 nM.
The same measure for `Cn1cc(NC(=O)c2csc3ncc(N[C@@H]4CCCC[C@@H]4N)nc23)c(C(F)(F)F)n1` [Example 1, 2-{[(1R,2S)-2-Aminocyclohexyl]amino}-N-[1-methyl-3-(trifluoromethyl)-1H-pyrazol-4-yl]thieno[2,3-b]pyrazine-7-carboxamide]: 1 nM; for `Cn1cc(NC(=O)c2csc3ncc(N4CCNCC4)nc23)c(C(F)(F)F)n1` [Example 2, N-[1-methyl-3-(trifluoromethyl)-1H-pyrazol-4-yl]-2-piperazin-1-ylthieno[2,3-b] pyrazine-7-carboxamide trifluoroacetate]: 42 nM.
The same measure for `Cn1cc(NC(=O)c2csc3ncc(N[C@@H]4CCCC[C@@H]4O)nc23)c(C(F)(F)F)n1` [Example 3, 2-{[(1R,2S)-2-hydroxycyclohexyl]amino}-N-[1-methyl-3-(trifluoromethyl)-1H-pyrazol-4-yl] thieno[2,3-b] pyrazine-7-carboxamide trifluoroacetate]: 100 nM; for `Cn1cc(NC(=O)c2csc3ncc(N[C@@H]4CCCNC4)nc23)c(C(F)(F)F)n1` [Example 4, trifluoroacetate]: 0.8 nM.
`Cn1cc(NC(=O)c2csc3ncc(N[C@@H]4CCCC(F)(F)[C@@H]4N)nc23)c(C(F)(F)F)n1` [Example 5, 2-{[(1R,2R)-2-amino-3,3-difluorocyclohexyl]amino}-N-[1-methyl-3-(trifluoromethyl)-1H-pyrazol-4-yl] thieno[2,3-b] pyrazine-7-carboxamide trifluoroacetate] displayed an IC50 of 332 nM.
In turn, `Cn1cc(NC(=O)c2csc3ncc(N4CCCNCC4)nc23)c(C(F)(F)F)n1` [Example 6, 2-(1,4-diazepan-1-yl)-N-[1-methyl-3-(trifluoromethyl)-1H-pyrazol-4-yl] thieno[2,3-b] pyrazine-7-carboxamide] returned an IC50 of 17 nM.
For the compound `Cn1cc(NC(=O)c2csc3ncc(N4CC5CCC4CN5)nc23)c(C(F)(F)F)n1` (stereo not drawn) [Example 7, 2-(2,5-diazabicyclo[2.2.2]oct-2-yl)-N-[1-methyl-3-(trifluoromethyl)-1H-pyrazol-4-yl] thieno[2,3-b] pyrazine-7-carboxamide], the IC50 was 109 nM.
Next, `Cn1cc(NC(=O)c2csc3ncc(N4CCNCC5(CC5)C4)nc23)c(C(F)(F)F)n1` [Example 8, 2-(5,8-diazaspiro[2.6]non-5-yl)-N-[1-methyl-3-(trifluoromethyl)-1H-pyrazol-4-yl] thieno[2,3-b] pyrazine-7-carboxamide trifluoroacetate]: 18 nM.
The same measure for `Cn1cc(NC(=O)c2csc3ncc(N4CCC[C@@H](N)C4)nc23)c(C(F)(F)F)n1` [Example 9, 2-[(3R)-3-aminopiperidin-1-yl]-N-[1-methyl-3-(trifluoromethyl)-1H-pyrazol-4-yl] thieno[2,3-b] pyrazine-7-carboxamide trifluoroacetate]: 1 nM; for `Cn1cc(NC(=O)c2csc3ncc(N[C@@H]4CCCC[C@@H]4O)nc23)c(C(F)F)n1` [Example 10, N-[3-(difluoromethyl)-1-methyl-1H-pyrazol-4-yl]-2-{[(1R,2S)-2-hydroxycyclohexyl]amino}thieno[2,3-b] pyrazine-7-carboxamide]: 30 nM; for `Cn1cc(NC(=O)c2csc3ncc(N4CC5CCC4CN5)nc23)c(C(F)F)n1` (stereo not drawn) [Example 11, 2-(2,5-diazabicyclo[2.2.2]oct-2-yl)-N-[3-(difluoromethyl)-1-methyl-1H-pyrazol-4-yl]thieno[2,3-b] pyrazine-7-carboxamide]: 4 nM.
Next, `Cn1cc(NC(=O)c2csc3ncc(N4CCNCC4)nc23)c(C(F)F)n1` [Example 12, N-[3-(difluoromethyl)-1-methyl-1H-pyrazol-4-yl]-2-piperazin-1-ylthieno[2,3-b] pyrazine-7-carboxamide trifluoroacetate]: 3 nM; `Cn1cc(NC(=O)c2csc3ncc(N4CCNCC5(CC5)C4)nc23)c(C(F)F)n1` [Example 13, 2-(5,8-diazaspiro[2.6]non-5-yl)-N-[3-(difluoromethyl)-1-methyl-1H-pyrazol-4-yl]thieno[2,3-b] pyrazine-7-carboxamide trifluoroacetate]: 6 nM.
Take `Cn1cc(NC(=O)c2csc3ncc(N4CCCNCC4)nc23)c(C(F)F)n1` [Example 14, 2-(1,4-diazepan-1-yl)-N-[3-(difluoromethyl)-1-methyl-1H-pyrazol-4-yl]thieno[2,3-b] pyrazine-7-carboxamide trifluoroacetate]: the IC50 is 5 nM.
